Where “and” joins values, the source holds several entries; their conditions need not be identical. Identical values can stand only once.

This is an account of results in patent US20030109675A1 (priority 2001, published 2003).

One data set deals with DegP protease (Escherichia coli, UniProt P0C0V0). Conditions: for effect of divalent cation on DegP cleavage of PapA-6H4A-rcm: 5 mM.
Data set [1] addresses T1, DegP (Escherichia coli, UniProt P0C0V0). Conditions: for cleavage of fluorescence-quench peptide by DegP: 8 μM (SPCJ-12) or 10 μM peptide, 25 mM HEPES, 5 mM CaCl2, 45° C.
For data set [2], the target named is T1, DegP. The conditions noted are these: scaled-up (5 ml) cleavage reaction, MALDI-TOF MS of products.
For data set [3], the target named is T1, DegP. The conditions noted are these: 7-mer and 12-mer Abz-tagged cellulose-bound peptides, 0.28 mg/ml DegP, 5 mM MgCl2, up to 28 hours.
In data set [4] the target is T1, DegP. The conditions noted are these: cited from earlier work.
Data set [5] addresses SPCJ-14 - Abz-[…]-DAP(Dnp)-NH2.

As to `[Cl][Mn][Cl]` [MnCl2, reference compound], on DegP protease, the “effect of divalent cation on DegP cleavage of PapA-6H4A-rcm” value is given as “stimulated DegP cleavage”.
For Abz-HYTAVVKKSSAV-DAP(Dnp)-NH2 [SPCJ-12], the “cleavage of fluorescence-quench peptide by DegP” value on DegP [1] (5 μg DegP) is “cleaved SPCJ-12 in a time-dependent fashion”. Further, the “DegP cleavage site in substrate peptide” value at DegP [2] is on record as “cleaved between the paired valine residues”.
As to ELVNCDI, on DegP [3], the “cleavage of PapA library peptide by DegP in solid-phase scan” value (“cleavage of PapA library peptide by DegP” below) is listed as “cleaved by DegP”.
The same measure, in the same setting: the result for HYTAVVKKSSAV reads “cleaved by DegP”; that for KLAFTGPIVNGH, “cleaved by DegP”; that for TLKDGENVLHYT, “cleaved by DegP”.
In the case of `[Ca+2].[Cl-].[Cl-]` [CaCl2, reference compound], the “effect of divalent cation on DegP cleavage of PapA-6H4A-rcm” value on DegP protease is given as “stimulated DegP cleavage”.
Consider Abz-HYTAVVK-DAP(Dnp)-NH2 [SPCJ-13], for which the “cleavage of fluorescence-quench peptide by DegP” value at DegP [1] (5 μg DegP) was “cleaved SPCJ-13 in a time-dependent fashion”. The “DegP cleavage site in substrate peptide” value at DegP [2] is reported as “cleavage between the paired valine residues”.
On to LDIELVNCDITA, for which, at DegP [3], the “cleavage of PapA library peptide by DegP” value is reported as “cleaved by DegP”.
Still for that read-out and setting: the result for DGENVLH reads “cleaved by DegP”; that for HYTAVVK, “cleaved by DegP”.
Consider KSMCMKLSFS [SPCJ-1], for which the “PapA-6H4A-rcm cleaved by DegP in presence of activating peptide, 60 minutes” value at DegP protease (200 μM peptide, 5 μg DegP, 40 μg substrate, 5 mM MgCl2, 45° C., 60 minutes) is 50% and > 50%. Further, the “PapA-6H4A-rcm cleaved by DegP in presence of activating peptide, four hours” value on DegP protease (200 μM peptide, 5 μg DegP, 40 μg substrate, 5 mM MgCl2, 45° C., four hours) is given as around 90%. Besides, at DegP [1] (200 μM peptide added at onset of incubation, 5 μg DegP), the “effect of peptide on DegP cleavage of SPCJ-13” value is “enhanced cleavage of SPCJ-13”.
As for Abz-HYTASSK-DAP(Dnp)-NH2 [SPCJ-14], the “cleavage of fluorescence-quench peptide by DegP” value at DegP [1] (5 μg DegP) is listed as “lack of cleavage”. Also, at DegP [1] (10-fold molar excess (100 μM vs 10 μM SPCJ-13), 30 minutes pre-incubation with 5 μg DegP, then 60 minutes), the “inhibition of DegP cleavage of SPCJ-13” value is given as “blocked cleavage of SPCJ-13”.
Regarding `O=S(=O)(F)Cc1ccccc1` [phenylmethylsulfonylfluoride], the “inhibition of DegP activity” value on DegP [4] is “not inhibited”.
For NVLHYTA, on DegP [3], the “cleavage of PapA library peptide by DegP” value is recorded as “cleaved by DegP”.
As for `[Cl-].[Cl-].[Mg+2]` [MgCl2, reference compound], the “input PapA-6H4A-rcm cleaved by DegP in presence of divalent cation” value at DegP protease (5 mM cation, 20 μg DegP, 20 μg substrate, 4 hours at 45° C.) is given as around 50%.
For the molecule NGHSDEL, the “cleavage of PapA library peptide by DegP” value at DegP [3] is listed as “cleaved by DegP”.
Still for that read-out and setting: in the case of FTGPIVNGHSDE it was “cleaved by DegP”.

B1: DegP protease (protein)
chain: AETSSATTAQQMPSLAPMLEKVMPSVVSINVEGSTTVNTPRMPRNFQQFFGDDSPFCQEGSPFQSSPFCQGGQGGNGGGQQQKFMALGSGVIIDADKGYVVTNNHVVDNATVIKVQLSDGRKFDAKMVGKDPRSDIALIQIQNPKNLTAIKMADSDALRVGDYTVAIGNPFGLGETVTSGIVSALGRSGLNAENYENFIQTDAAINRGNSGGALVNLNGELIGINTAILAPDGGNIGIGFAIPSNMVKNLTSQMVEYGQVKRGELGIMGTELNSELAKAMKVDAQRGAFVSQVLPNSSAAKAGIKAGDVITSLNGKPISSFAALRAQVGTMPVGSKLTLGLLRDGKQVNVNLELQQSSQNQVDSSSIFNGIEGAEMSNKGKDQGVVVNNVKTGTPAAQIGLKKGDVIIGANQQAVKNIAELRKVLDSKPSVLALNIQRGDSTIYLLMQ
As for B1, the “cleavage in the fluorescent-quench peptide assay” value in data set [5] was “SPCJ-14 was not cleaved”.
